Earlier results in patent US20110217715A1, “GENE EXPRESSION IN DUCHENNE MUSCULAR DYSTROPHY” (CHILDREN'S HOSPITAL MEDICAL CENTER, priority 2008, published 2011).

System: individuals with DMD
Details: cited from earlier work

CC(=O)OCC(=O)[C@@]12N=C(C)O[C@@H]1C[C@H]1[C@@H]3CCC4=CC(=O)C=C[C@]4(C)[C@H]3[C@@H](O)C[C@@]12C [deflazacort]
side effects / weight gain (DMD individuals receiving deflazacort, relative to prednisone): fewer side effects, in particular, less weight gain
muscle function and strength (individuals with DMD): improved muscle function and strength
